One assay has as its target Yap1:Oct4 interaction (Homo sapiens, UniProt P46937). In words: Yap1:Oct4 interaction (in vitro binding assay). Conditions: FIG. 1.
The next assay relates to PC9 cells. In words: MTT IC50 on parental PC9 cells. The format is cell-based.
In a further assay the test system is PC9-OSIMR cells. Briefly: MTT IC50 on Osimertinib-resistant PC9 cells. The format is cell-based.
The subject of the next assay is PC9luc cells. In words: MTT IC50 on PC9 cells expressing a luciferase gene. The format is cell-based.
A further assay relates to PC9luc-OSIMR cells. In words: MTT IC50 on PC9-Osimertinib resistant cells expressing a luciferase gene. The format is cell-based.

Like-named read-outs stand apart in the source and are kept apart here. Where only a bound is given, the exact number is not on record here.

Yap1:Oct4 interaction, sequence (P46937 whole entry): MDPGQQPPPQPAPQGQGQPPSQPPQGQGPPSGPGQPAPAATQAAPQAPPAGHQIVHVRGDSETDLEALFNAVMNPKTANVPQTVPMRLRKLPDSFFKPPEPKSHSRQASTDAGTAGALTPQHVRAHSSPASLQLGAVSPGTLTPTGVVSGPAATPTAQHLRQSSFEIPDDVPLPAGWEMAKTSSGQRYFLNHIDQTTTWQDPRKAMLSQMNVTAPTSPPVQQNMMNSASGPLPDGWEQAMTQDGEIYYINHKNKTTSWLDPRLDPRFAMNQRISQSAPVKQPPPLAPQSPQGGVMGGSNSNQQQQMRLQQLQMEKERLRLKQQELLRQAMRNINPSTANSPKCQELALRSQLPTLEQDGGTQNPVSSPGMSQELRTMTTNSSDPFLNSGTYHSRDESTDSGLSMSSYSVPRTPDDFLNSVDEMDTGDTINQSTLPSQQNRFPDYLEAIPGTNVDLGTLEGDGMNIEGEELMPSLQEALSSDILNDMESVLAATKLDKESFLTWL

`CCOc1ccc(CCCN2CCC(CC(=O)N[C@@H](Cc3cccc(OC)c3)C(=O)OC)CC2)cc1` [SR7-042] gave an IC50 on Yap1:Oct4 interaction of 1400 nM.

As to `COC(=O)[C@H](Cn1cc(-c2ccccc2)cn1)NC(=O)CC1CCN(C(=O)CCc2cccc(F)c2)CC1` [SR6-096], on Yap1:Oct4 interaction, the IC50 worked out at 870 ± 320 nM.

`COC(=O)[C@H](Cc1cccc(OC)c1)NC(=O)CC1CCN(CCCc2ccc(Cl)c(Cl)c2)CC1` [SR7-045] came in with an IC50 on Yap1:Oct4 interaction of 1450 nM.

With `O=C(CC1CCN(CCCc2cccc(F)c2)CC1)Nc1ccc(OCc2ccccc2)cc1` [SR7-057], the concentration for half-maximal inhibition (IC50) at Yap1:Oct4 interaction is 707 nM.

In the case of `COC(=O)[C@H](Cc1ccc(OCc2ccccc2)cc1)NC(=O)CC1CCN(CCCc2ccc(F)c(C#N)c2)CC1` [SR6-170], the IC50 at Yap1:Oct4 interaction amounted to 780 ± 150 nM.

`C=CC(=O)Nc1cc(Nc2nccc(-c3cn(C)c4ccccc34)n2)c(OC)cc1N(C)CCN(C)C` [Osimertinib, reference compound]: the IC50 in the assay with PC9 cells (Homo sapiens, PC-9, EGFR-mutant PC9 cells, read-out: IC50 for Osimertinib) amounted to 16 nM; in the assay with PC9 cells (Homo sapiens, PC-9, PC9, read-out: IC50 MTT) it was 16.2 nM; in the assay on PC9-OSIMR cells (Homo sapiens, PC-9, Osimertinib-resistant PC9 cells, read-out: IC50), 5.2 µM; with PC9-OSIMR cells (Homo sapiens, PC-9, PC9-OSIMR, read-out: IC50 MTT), 5.25 µM; with PC9luc cells (Homo sapiens, PC-9), 16.1 nM; in the assay on PC9luc-OSIMR cells it was 4.93 µM. Also, in the assay on PC9-OSIMR cells (Osimertinib-resistant vs parental PC9 cells), the “fold reduction in sensitivity” value is on record as 325 fold.

For `CCOc1ccc(CCCN2CCC(CC(=O)N[C@@H](Cc3ccc(OCc4ccccc4)cc3)C(=O)OC)CC2)cc1` [SR6-087], the IC50 at Yap1:Oct4 interaction was 510 ± 80 nM.

On Yap1:Oct4 interaction, `COC(=O)[C@H](Cc1ccc(OCc2ccccc2)cn1)NC(=O)CC1CCN(C(=O)CCc2ccc(Cl)c(Cl)c2)CC1` [SR6-095] yielded an IC50 of 1010 ± 260 nM.

Consider `COC(=O)[C@H](Cc1ccc(OC)cc1)NC(=O)CC1CCN(CCCc2cccc(F)c2)CC1` [SR7-067], for which the IC50 with PC9 cells (PC9, read-out: IC50 MTT) is more than 40000 nM; in the assay with PC9-OSIMR cells (PC9-OSIMR, read-out: IC50 MTT), more than 40 µM; in the assay with PC9luc cells, more than 40000 nM; with PC9luc-OSIMR cells, more than 40 µM; on Yap1:Oct4 interaction, 2560 nM.

In the case of `O=C(CC1CCN(CCCc2ccc(Cl)c(Cl)c2)CC1)Nc1ccc(OCc2ccccc2)cc1` [SR7-053], the IC50 in the assay with PC9 cells (PC9, read-out: IC50 MTT) was 1160 nM; in the assay on PC9-OSIMR cells (PC9-OSIMR, read-out: IC50 MTT) it was 3.9 µM; in the assay with PC9luc cells, 865 nM; in the assay with PC9luc-OSIMR cells, 3.35 µM; at Yap1:Oct4 interaction, 564 nM.

In turn, `COC(=O)[C@H](Cc1ccc(OCc2ccccc2)cc1)NC(=O)CC1CCN(CCCc2cccc(F)c2)CC1` [SR6-085] registered a concentration for half-maximal inhibition (IC50) on Yap1:Oct4 interaction of 750 ± 150 nM.

`COC(=O)[C@H](Cc1cccc(OC)c1)NC(=O)CC1CCN(CCC(C)(C)C)CC1` [SR7-055] showed an IC50 on Yap1:Oct4 interaction of more than 40000 nM.

At Yap1:Oct4 interaction, `COC(=O)[C@H](Cc1ccc(OCc2ccccc2)cc1)NC(=O)CC1CCN(CCCc2ccc(Cl)c(Cl)c2)CC1` [SR6-086] displayed an IC50 of 1850 ± 890 nM.

Consider `CCOc1ccc(CCCN2CCC(CC(=O)Nc3ccc(OCc4ccccc4)cc3)CC2)cc1` [SR7-052], for which the IC50 in the assay on PC9 cells (PC9, read-out: IC50 MTT) was 1230 nM; in the assay on PC9-OSIMR cells (PC9-OSIMR, read-out: IC50 MTT) it was 5.47 µM; in the assay on PC9luc cells, 1270 nM; in the assay on PC9luc-OSIMR cells it was 4.03 µM; at Yap1:Oct4 interaction, 445 nM.

Regarding `N#Cc1ccc(CCCN2CCC(CC(=O)Nc3ccc(OCc4ccccc4)cc3)CC2)cc1` [SR7-061], the IC50 on Yap1:Oct4 interaction came out at 1300 nM.

As a reminder, the IC50 is the point on the concentration scale where inhibition reaches its midpoint.

The record behind these values is patent US20260034115A1, “YAP1 INHIBITORS” (H. LEE MOFFITT CANCER CENTER AND RESEARCH INSTITUTE, INC., priority 2021, published 2026).
